In patent publication EP4653437A2 (Innovo Therapeutics Inc., priority 2023, dated 2024):

Target: T1, human 15-PGDH (Homo sapiens, UniProt P15428)
T1 construct: purchased R&D System 5660-DH
T1 sequence (P15428 1-266): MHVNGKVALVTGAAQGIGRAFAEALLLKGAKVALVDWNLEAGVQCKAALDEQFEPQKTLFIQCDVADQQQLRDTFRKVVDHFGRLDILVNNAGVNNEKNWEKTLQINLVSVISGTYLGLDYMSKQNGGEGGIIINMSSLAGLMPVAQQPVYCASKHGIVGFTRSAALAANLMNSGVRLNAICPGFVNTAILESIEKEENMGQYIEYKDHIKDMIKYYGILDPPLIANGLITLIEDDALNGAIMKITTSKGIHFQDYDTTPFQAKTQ
Test: Evaluation of 15-PGDH inhibitory activity (fluorescence enzyme assay, NAD+/PGE2)
Format: biochemical
Conditions: human 15-PGDH enzyme, fluorescence Vmax
Experimental: 15-PGDH inhibition activity of Example compounds was measured as follows. 6.7 ng of human 15-PGDH (R&D System# 5660-DH) enzyme (10 µL) was added to a black 96 well plate, 60 µL of buffer (50 mM Tris-HCl, pH 7.5, 0.01% Tween 20) was added, and 10 µL of 200 µM β-Nicotinamide adenine dinucleotide sodium salt (Sigma, Cat# N0632-5G) was added. 10 µL of (10x) compound solution in DMSO was added and reacted for 10 minutes at room temperature.

How did the IC50 turn out when `O=C(c1cnc2c(-c3cccc(Cl)c3)cccn12)N1CCCCC1` [Example 162, (8-(3-chlorophenyl)imidazo[1,2-a]pyridin-3-yl)(piperidin-1-yl)methanone] was run?
The IC50 was at most 100 nM.

How did the IC50 turn out when `O=C(c1cnn2c(-c3ccc4[nH]c(=O)ccc4c3)cccc12)N1CCCCC1` [Example 145, 6-(3-(piperidine-1-carbonyl)pyrazolo[1,5-a]pyridin-7-yl)quinolin-2(1H)-one] was run?
The IC50 was at most 100 nM.

With `Cc1cc(-c2ccnc(Cl)c2)c2ncc(C(=O)N3CCCCC3)n2c1` [Example 166, (8-(2-chloropyridin-4-yl)-6-methylimidazo[1,2-a]pyridin-3-yl)(piperidin-1-yl)methanone] as the compound, how does the IC50 read?
The IC50 was 100 to 1000 nM.

How did the IC50 turn out when `O=C(c1cnn2c(-c3coc4ccccc34)cccc12)N1CCCCC1` [Example 122, (7-(benzofuran-3-yl)pyrazolo[1,5-a]pyridin-3-yl)(piperidin-1-yl)methanone] was run?
Its IC50 is at most 100 nM.

Which IC50 does the source give for `O=C(c1cnn2c(-c3ccc([N+](=O)[O-])cc3)cccc12)N1CCCCC1` [Example 13, (7-(4-nitrophenyl)pyrazolo[1,5-a]pyridin-3-yl)(piperidin-1-yl)methanone] here?
The IC50 was at most 100 nM.

Which IC50 does the source give for `O=C(c1cc2c(-c3ccc4c(c3)OCO4)nccc2[nH]1)N1CCCCC1` [Example 174, (4-(benzo[d][1,3]dioxol-5-yl)-1H-pyrrolo[3,2-c]pyridin-2-yl)(piperidin-1-yl)methanone] here?
The IC50 was over 1000 nM.

How did the IC50 turn out when `O=C(c1cnn2c(-c3ccc4ccccc4c3)cccc12)N1CCCCC1` [Example 129, (7-(naphthalen-2-yl)pyrazolo[1,5-a]pyridin-3-yl)(piperidin-1-yl)methanone] was run?
Its IC50 is at most 100 nM.

`O=C(c1cnn2c(-c3ccc4c(c3)OCO4)cccc12)N1CCCCC1` [Example 121, (7-(benzo[d][1,3]dioxol-5-yl)pyrazolo[1,5-a]pyridin-3-yl)(piperidin-1-yl)methanone] was tested. Which IC50 did it give?
The IC50 was at most 100 nM.

Which IC50 does the source give for `O=C(c1cnn2cc(-c3cccc(Cl)c3)ccc12)N1CCCCC1` [Example 170, (6-(3-chlorophenyl)pyrazolo[1,5-a]pyridin-3-yl)(piperidin-1-yl)methanone] here?
The IC50 was at most 100 nM.

How did the IC50 turn out when `O=C(c1cc2nc(-c3ccc4c(c3)OCO4)ncc2[nH]1)N1CCCCC1` [Example 187, (2-(benzo[d][1,3]dioxol-5-yl)-5H-pyrrolo[3,2-d]pyrimidin-6-yl)(piperidin-1-yl)methanone] was run?
Its IC50 is 100 to 1000 nM.

`Cn1ccc2cc(-c3cccc4c(C(=O)N5CCCCC5)cnn34)ccc2c1=O` [Example 139, 2-methyl-6-(3-(piperidine-1-carbonyl)pyrazolo[1,5-a]pyridin-7-yl)isoquinolin-1(2H)-one] was tested. Which IC50 did it give?
The IC50 was at most 100 nM.

`COc1ccc(-c2cccc3c(C(=O)N4CCCCC4)cnn23)cc1OC` [Example 24, (7-(3,4-dimethoxyphenyl)pyrazolo[1,5-a]pyridin-3-yl)(piperidin-1-yl)methanone] was tested. Which IC50 did it give?
The IC50 was at most 100 nM.

How did the IC50 turn out when `O=C(c1cc2nc(-c3ccc4c(c3)OCO4)ccc2[nH]1)N1CCCCC1` [Example 173, (5-(benzo[d][1,3]dioxol-5-yl)-1H-pyrrolo[3,2-b]pyridin-2-yl)(piperidin-1-yl)methanone] was run?
The IC50 was at most 100 nM.

For `O=C(c1cc2c(-c3ccc4c(c3)OCO4)ncnc2[nH]1)N1CCCCC1` [Example 177, (4-(benzo[d][1,3]dioxol-5-yl)-7H-pyrrolo[2,3-d]pyrimidin-6-yl)(piperidin-1-yl)methanone], which IC50 is on record?
The IC50 was over 1000 nM.

With `CC(=O)Nc1ccc(-c2cccc3c(C(=O)N4CCCCC4)cnn23)cc1` [Example 97, N-(4-(3-(piperidine-1-carbonyl)pyrazolo[1,5-a]pyridin-7-yl)phenyl)acetamide] as the compound, how does the IC50 read?
Its IC50 is at most 100 nM.

How did the IC50 turn out when `O=C(c1cnc2c(-c3cccc(Cl)c3)cc(F)cn12)N1CCCCC1` [Example 167, (8-(3-chlorophenyl)-6-fluoroimidazo[1,2-a]pyridin-3-yl)(piperidin-1-yl)methanone] was run?
Its IC50 is at most 100 nM.

`Nc1ccc(-c2cccc3c(C(=O)N4CCCCC4)cnn23)cc1` [Example 14, (7-(4-aminophenyl)pyrazolo[1,5-a]pyridin-3-yl)(piperidin-1-yl)methanone] was tested. Which IC50 did it give?
The IC50 was at most 100 nM.
